This note sets out measurements from patent US9771359B1, “Substituted oxazole- and thiazole-based carboxamide and urea derivatives as vanilloid receptor ligands II” (MEDIFRON DBT INC., priority 2014, dated 2017).

For this test, the target named is vanilloid receptor 1 (VR1/TRPV1) (Homo sapiens (Human), UniProt Q8NER1). Kind of test: FLIPR assay, Ca2+ influx in CHO K1 cells transfected with the human VR1 gene. Type of test: cell-based. The conditions noted are these: for Ki: displacement of capsaicin 100 nM, Ki from IC50 by Cheng-Prusoff equation, read-out: (f) Ki (human) [nM] Cap; for compound-alone effect on Ca2+ influx (agonist / partial agonist): compound 5 μM, % activation compared with control capsaicin 10 μM. The method, then:
Furthermore, preference may be given to compounds according to the first aspect of the invention that cause a 50% displacement of capsaicin, which is present at a concentration of 100 nM, in a FLIPR assay with CHO K1 cells which were transfected with the human VR1 gene at a concentration of less than 2 000 nM, preferably less than 1 000 nM, particularly preferably less than 300 nM, most particularly preferably less than 100 nM, even more preferably less than 75 nM, additionally preferably less than 50 nM, most preferably less than 10 nM. In the process, the Ca^2+ influx is quantified in the FLIPR assay with the aid of a Ca^2+-sensitive dye (type Fluo-4, Molecular Probes Europe BV, Leiden, the Netherlands) in a fluorescent imaging plate reader (FLIPR, Molecular Devices, Sunnyvale, USA), as described hereinafter.
The FLIPR protocol consists of 2 substance additions during a kinetic measurement. First the compounds to be tested (5 μM) are pipetted onto the cells and the Ca^2+ influx is determined in comparison to the control (capsaicin 10 μM), providing the result as % activation and representing the compound-alone effect (calculation at peak signal related to baseline). […] After 5 min incubation, the Ca^2+ influx is related to an injection of 100 nM of capsaicin and thereby the antagonistic effect of the test compounds detected.
Desensitising agonists and antagonists lead to suppression of the Ca^2+ influx. The % inhibition is calculated compared to the maximum achievable inhibition with 10 μM of capsaicin. Triple analyses (n=3) are carried out and repeated in at least 3 independent experiments.
Starting from the percentage displacement caused by different concentrations of the compounds to be tested of general formula I, IC50 inhibitory concentrations which cause a 50-% displacement of capsaicin were calculated. Ki values for the test substances were obtained by conversion by means of the Cheng-Prusoff equation (Cheng, Prusoff; Biochem. Pharmacol. 22, 3099-3108, 1973).
Chinese hamster ovary cells (CHO K1 cells, European Collection of Cell Cultures (ECACC) United Kingdom) are stably transfected with the VR1 gene. For functional testing, these cells are plated out on poly-D-lysine-coated black 96-well plates having a clear base (BD Biosciences, Heidelberg, Germany) at a density of 25,000 cells/well. The cells are incubated overnight at 37° C. and 5% CO2 in a culture medium (Ham's F12 nutrient mixture, 10% by volume of FCS (foetal calf serum), 18 μg/ml of L-proline). The next day the cells are incubated with Fluo-4 (Fluo-4 2 μM, 0.01% by volume of Pluronic F127, Molecular Probes in HBSS (Hank's buffered saline solution), Gibco Invitrogen GmbH, Karlsruhe, Germany) for 30 min at 37° C. Subsequently, the plates are washed three times with HBSS buffer and after further incubation for 15 min at RT used for Ca^2+ measurement in a FLIPR assay. The Ca^2+-dependent fluorescence is measured before and after the addition of the substances to be tested (λex wavelength=488 nm, λem=540 nm). Quantification is carried out by measuring the highest fluorescence intensity (FC, fluorescence counts) over time.

Each structure is given as a SMILES string. Counter-ions that a name gives are not always drawn.

The term Ki denotes a measure of affinity in units of concentration, obtained from inhibition or displacement.

Chain of vanilloid receptor 1 (VR1/TRPV1) (Q8NER1 whole entry): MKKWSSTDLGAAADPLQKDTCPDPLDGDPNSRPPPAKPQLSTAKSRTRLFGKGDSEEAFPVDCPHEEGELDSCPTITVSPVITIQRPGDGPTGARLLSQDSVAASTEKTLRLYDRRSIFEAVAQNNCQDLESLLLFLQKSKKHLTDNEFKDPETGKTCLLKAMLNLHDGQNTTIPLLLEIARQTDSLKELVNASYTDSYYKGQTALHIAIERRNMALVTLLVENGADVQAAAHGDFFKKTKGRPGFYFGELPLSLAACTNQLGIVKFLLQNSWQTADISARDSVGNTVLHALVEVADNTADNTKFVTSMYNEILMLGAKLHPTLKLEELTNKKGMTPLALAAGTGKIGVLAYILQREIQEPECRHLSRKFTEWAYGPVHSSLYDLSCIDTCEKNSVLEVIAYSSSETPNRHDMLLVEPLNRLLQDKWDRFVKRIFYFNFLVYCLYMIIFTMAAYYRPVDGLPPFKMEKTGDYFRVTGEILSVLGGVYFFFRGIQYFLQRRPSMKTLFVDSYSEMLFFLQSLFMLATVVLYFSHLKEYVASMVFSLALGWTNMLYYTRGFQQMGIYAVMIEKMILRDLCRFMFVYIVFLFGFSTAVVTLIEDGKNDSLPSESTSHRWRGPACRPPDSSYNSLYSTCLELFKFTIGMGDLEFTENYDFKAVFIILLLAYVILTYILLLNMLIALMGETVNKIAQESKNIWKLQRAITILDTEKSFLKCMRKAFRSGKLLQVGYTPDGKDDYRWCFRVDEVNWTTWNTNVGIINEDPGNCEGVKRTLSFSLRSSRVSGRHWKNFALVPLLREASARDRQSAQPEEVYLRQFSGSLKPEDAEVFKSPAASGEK

Take `O=C(NCc1sc(C(F)(F)F)nc1-c1cccc(Cl)c1)Nc1ccc(COCCO)nc1` [EX-49, 1-((4-(3-chlorophenyl)-2-(trifluoromethyl)thiazol-5-yl)methyl)-3-(6-((2-hydroxyethoxy)methyl)pyridin-3-yl)urea dihydrochloride]: the inhibition constant Ki was 35 nM.
On to `CC(C)(C)c1nc(-c2cccc(Cl)c2)c(CNC(=O)Nc2ccc3c(c2)OCO3)s1` [EX-50, 1-(benzo[d][1,3]dioxol-5-yl)-3-((2-(tert-butyl)-4-(3-chlorophenyl)thiazol-5-yl)methyl)urea], for which the “compound-alone effect on Ca2+ influx (agonist / partial agonist)” value is recorded as “pAG (A Ca^2+ influx of 10%-60% reveals a partial agonist (pAG))” and the inhibition constant Ki was found to be 5.6 nM.
Take `CC(C)(C)c1nc(-c2cccc(Cl)c2)c(CNC(=O)Nc2cccc3c2CCC3)s1` [EX-51, 1-((2-(tert-butyl)-4-(3-chlorophenyl)thiazol-5-yl)methyl)-3-(2,3-dihydro-1H-inden-4-yl)urea]: the “compound-alone effect on Ca2+ influx (agonist / partial agonist)” value was “pAG (A Ca^2+ influx of 10%-60% reveals a partial agonist (pAG))” and the Ki came to 2.9 nM.
Take `CC(C)(C)c1nc(-c2cccc(Cl)c2)c(CNC(=O)Nc2ccc3cnccc3c2)s1` [EX-52, 1-((2-(tert-butyl)-4-(3-chlorophenyl)thiazol-5-yl)methyl)-3-(isoquinolin-6-yl)urea]: the “compound-alone effect on Ca2+ influx (agonist / partial agonist)” value is “AG (a Ca^2+ influx of >60% relates to a pure agonist (AG))”.
For `CC(C)(C)c1nc(-c2cccc(Cl)c2)c(CNC(=O)Nc2cccc3ncccc23)s1` [EX-53, 1-((2-(tert-butyl)-4-(3-chlorophenyl)thiazol-5-yl)methyl)-3-(quinolin-5-yl)urea], the “compound-alone effect on Ca2+ influx (agonist / partial agonist)” value is “AG (a Ca^2+ influx of >60% relates to a pure agonist (AG))”.
In the case of `CC(C)(C)c1nc(-c2cccc(Cl)c2)c(CNC(=O)Nc2ccc3c(c2)OCCO3)s1` [EX-54, 1-((2-(tert-butyl)-4-(3-chlorophenyl)thiazol-5-yl)methyl)-3-(2,3-dihydrobenzo[b][1,4]dioxin-6-yl)urea], the Ki is 5.9 nM.
Same read-out and setting: the result for `CC(C)(C)c1nc(-c2cccc(Cl)c2)c(CNC(=O)Nc2ccc3c(c2)CCC3)s1` [EX-55, 1-((2-(tert-butyl)-4-(3-chlorophenyl)thiazol-5-yl)methyl)-3-(2,3-dihydro-1H-inden-5-yl)urea] reads 12.3 nM; that for `CC(C)(C)c1nc(-c2cccc(Cl)c2)c(CNC(=O)Nc2cccc3cnccc23)s1` [EX-56, 1-((2-(tert-butyl)-4-(3-chlorophenyl)thiazol-5-yl)methyl)-3-(isoquinolin-5-yl)urea], 0.1 nM.
On the same count and under the same terms, for `CC(C)(C)c1nc(-c2cccc(Cl)c2)c(CNC(=O)Nc2ccc(CNS(C)(=O)=O)c(F)c2)s1` [EX-57, N-(4-(3-((2-(tert-butyl)-4-(3-chlorophenyl)thiazol-5-yl)methyl)ureido)-2-fluorobenzyl)methanesulfonamide] the value was 6.6 nM; for `Cc1cccc(-c2nc(C(C)(C)C)sc2CNC(=O)Nc2ccc(CNS(C)(=O)=O)c(F)c2)c1` [EX-58, N-(4-(3-((2-(tert-butyl)-4-(m-tolyl)thiazol-5-yl)methyl)ureido)-2-fluorobenzyl)methanesulfonamide], 2.3 nM.
Regarding `CC(C)(C)c1nc(-c2cccc(Cl)c2)c(CNC(=O)Nc2ccc(CO)c(F)c2)s1` [EX-59, 1-((2-(tert-butyl)-4-(3-chlorophenyl)thiazol-5-yl)methyl)-3-(3-fluoro-4-(hydroxymethyl)phenyl)urea], the “compound-alone effect on Ca2+ influx (agonist / partial agonist)” value was “pAG (A Ca^2+ influx of 10%-60% reveals a partial agonist (pAG))” and the inhibition constant Ki came out at 1.1 nM.
Taken in the same sequence, the figures for `Cc1cccc(-c2nc(C(C)(C)C)sc2CNC(=O)Nc2ccc(CO)c(F)c2)c1` [EX-60, 1-((2-(tert-butyl)-4-(m-tolyl)thiazol-5-yl)methyl)-3-(3-fluoro-4-(hydroxymethyl)phenyl)urea] were “pAG (A Ca^2+ influx of 10%-60% reveals a partial agonist (pAG))” and 3.2 nM.
